One may read the half-life as the time in which the quantity being followed falls by half. Read a high half-life as slow decline.

The results in this text go back to patent US20250152553A1, “CARBAMOTHIOATE, AND CARBAMODITHIOATE DERIVATIVES OF MDMA, MDA OR ITS OPTICALLY ACTIVE (R)- OR (S)-MDMA AND MDA ISOMERS” (EmpathBio, Inc., priority 2023, published 2025).

Structures are written as SMILES. Converted amounts (≈) assume the structure as drawn. Where only a bound is given, the exact number is not on record here.

Data set [1] can be described thus: Plasma stability in mouse plasma. It is filed as in vitro ADME. The conditions noted are these: for Remaining Percentages (%) 0 min / Remaining Percentages (%) 15 min / Remaining Percentages (%) 30 min / Remaining Percentages (%) 60 min / Remaining Percentages (%) 120 min: 1 μM; for half-life at 1 μM: test concentration 1 μM.
Data set [2] can be described thus: Chemical stability in PBS pH 6.5. It is filed as physicochemical. The conditions noted are these: for half-life: PBS pH 6.5; for Remaining Percentage (%) 0 min: PBS pH 6.5, 0 min; for Remaining Percentage (%) 30 min: PBS pH 6.5, 30 min; for Remaining Percentage (%) 60 min: PBS pH 6.5, 60 min; for Remaining Percentage (%) 120 min: PBS pH 6.5, 120 min; for Remaining Percentage (%) 240 min: PBS pH 6.5, 240 min.

Data set [3] can be described thus: Solubility in FaSSIF. Type of data set: physicochemical. Particulars: read-out: SOL (μM) FaSSIF.

As for `CCSC(=S)NC(C)Cc1ccc2c(c1)OCO2` (stereo not shown) [Prodrug 12, ethyl (1-(benzo[d][1,3]dioxol-5-yl)propan-2-yl)carbamodithioate], in data set [1], the “Remaining Percentages (%) 0 min” value was 100%, the “Remaining Percentages (%) 15 min” value was 101.19%, the “Remaining Percentages (%) 30 min” value came to 92.04% and the “Remaining Percentages (%) 60 min” value is on record as 92.28%. For the same compound, in data set [1], the “Remaining Percentages (%) 120 min” value amounted to 89.25% and the half-life at 1 μM was more than 8.52 h. Further, in data set [2], the half-life was more than 17.1 h, the “Remaining Percentage (%) 0 min” value is given as 100.00%, the “Remaining Percentage (%) 30 min” value is listed as 102.94% and the “Remaining Percentage (%) 60 min” value amounted to 99.30%. Further, in data set [2], the “Remaining Percentage (%) 120 min” value worked out at 104.13% and the “Remaining Percentage (%) 240 min” value worked out at 100.98%. In data set [3], the solubility stood at 252 µM (≈ 71.3 µg/mL).

In the case of `COC(=S)N(C)C(C)Cc1ccc2c(c1)OCO2` (stereo not shown) [Prodrug 1, O-methyl (1-(benzo[d][1,3]dioxol-5-yl)propan-2-yl)(methyl)carbamothioate], in data set [1], the “Remaining Percentages (%) 0 min” value came out at 100%, the “Remaining Percentages (%) 15 min” value amounted to 108.17%, the “Remaining Percentages (%) 30 min” value amounted to 96.20% and the “Remaining Percentages (%) 60 min” value amounted to 103.37%. For the same compound, in data set [1], the “Remaining Percentages (%) 120 min” value amounted to 100.00% and the half-life at 1 μM was more than 8.52 h. For the same compound, in data set [2], the half-life was more than 17.1 h, the “Remaining Percentage (%) 0 min” value was 100.00%, the “Remaining Percentage (%) 30 min” value stood at 95.62% and the “Remaining Percentage (%) 60 min” value is 102.35%. In data set [2], the “Remaining Percentage (%) 120 min” value worked out at 93.11% and the “Remaining Percentage (%) 240 min” value came to 106.73%. In addition, in data set [3], the solubility is 278 µM (≈ 74.4 µg/mL).

Take `CCOC(=S)N(C)C(C)Cc1ccc2c(c1)OCO2` (stereo not shown) [Prodrug 3, O-ethyl (1-(benzo[d][1,3]dioxol-5-yl)propan-2-yl)(methyl)carbamothioate]: in data set [1], the “Remaining Percentages (%) 0 min” value is 100%, the “Remaining Percentages (%) 15 min” value stood at 106.31%, the “Remaining Percentages (%) 30 min” value was determined as 97.30% and the “Remaining Percentages (%) 60 min” value is recorded as 97.75%. For the same compound, in data set [1], the “Remaining Percentages (%) 120 min” value is on record as 96.85% and the half-life at 1 μM is more than 8.52 h. In addition, in data set [2], the half-life is more than 17.1 h, the “Remaining Percentage (%) 0 min” value stood at 100.00%, the “Remaining Percentage (%) 30 min” value came out at 100.73% and the “Remaining Percentage (%) 60 min” value came to 95.33%. Besides, in data set [2], the “Remaining Percentage (%) 120 min” value worked out at 99.99% and the “Remaining Percentage (%) 240 min” value is 91.16%. Besides, the solubility in data set [3] came out at 131 µM (≈ 36.9 µg/mL).

Turning to `COC(=S)NC(C)Cc1ccc2c(c1)OCO2` (stereo not shown) [Prodrug 2, O-methyl (1-(benzo[d][1,3]dioxol-5-yl)propan-2-yl)carbamothioate], in data set [1], the “Remaining Percentages (%) 0 min” value is given as 100%, the “Remaining Percentages (%) 15 min” value is 101.54%, the “Remaining Percentages (%) 30 min” value is given as 99.62% and the “Remaining Percentages (%) 60 min” value is 96.35%. In addition, in data set [1], the “Remaining Percentages (%) 120 min” value is 91.94% and the half-life at 1 μM was more than 8.52 h. Moreover, in data set [2], the half-life was more than 17.1 h, the “Remaining Percentage (%) 0 min” value came out at 100.00%, the “Remaining Percentage (%) 30 min” value came to 105.00% and the “Remaining Percentage (%) 60 min” value is given as 100.45%. Moreover, in data set [2], the “Remaining Percentage (%) 120 min” value worked out at 102.27% and the “Remaining Percentage (%) 240 min” value turned out to be 105.00%. The solubility in data set [3] came to 279 µM (≈ 70.8 µg/mL).
